“Also recorded” adds a separate entry of the source.
Key:
Csa3Sso R98A mutant = molecular target: T1, Csa3Sso R98A mutant (Saccharolobus solfataricus, UniProt Q97Y88, R98A); experiment: MST binding of cA4 to Csa3Sso R98A mutant; conditions: Fig. 4E
T1 construct: made in house; host or cells: E. coli BL21(DE3)-pLysS (pBB75)
Experimental: (§1) The ligand-binding specificity of Csa3Sso (WT) and the role of Csa3Sso residues in ligand binding were determined by microscale Thermophoresis (MST). Wildtype or mutant His6-Csa3Sso (200 nM) was fluorescently labeled in 2× binding buffer (10 mM Na/K phosphate, pH 5.8, 10 mM MgCl2, 25 mM NaCl, and 0.05% Tween 20) using 100 nM RED-Tris NTA His-Tag labeling dye (Nanotemper Technologies, Inc) and incubated in the dark at room temperature for 30 min. Two millimolar stocks of synthetic ligands including cA3, cA4, and cA6 (Biolog Life Science Institute) or linear ribonucleotide 5′-rCrArArArA-3′ (Bio-Synthesis Inc) were serially diluted in a 1:1 ratio with nuclease-free water. The labeled proteins were then mixed with ligands in a 1:1 ratio. Only cA4 was used in the MST experiments with the Csa3Sso mutants (2 mM stocks of cA4 were used for F10A, F14A, G96A, and R98A mutants, and 20 μM stocks were used for E122A and E122Q mutants). […] The supernatants were then loaded into Monolith NT.115 Series Premium capillaries in triplicate, and the thermophoresis was detected with 40% excitation power and 40% IR-laser power for an on-time of 20 s at 25 °C.
(§2) The binding affinities of oligonucleotides and PCas4a to Csa3Sso (WT and mutants) were analyzed according to the law of mass action in a standard fitting mode of MO.Affinity analysis software (version 2.3).

His6-Csa3Sso (WT) [1] = molecular target: T2, His6-Csa3Sso (WT) (Saccharolobus solfataricus, UniProt Q97Y88); experiment: MST binding of PCas4a promoter DNA to Csa3Sso with or without cOAs; conditions: 50-fold excess of cOA (25 μM)
T2 construct: made in house; host or cells: E. coli BL21(DE3)-pLysS
T2 sequence (Q97Y88 1-237): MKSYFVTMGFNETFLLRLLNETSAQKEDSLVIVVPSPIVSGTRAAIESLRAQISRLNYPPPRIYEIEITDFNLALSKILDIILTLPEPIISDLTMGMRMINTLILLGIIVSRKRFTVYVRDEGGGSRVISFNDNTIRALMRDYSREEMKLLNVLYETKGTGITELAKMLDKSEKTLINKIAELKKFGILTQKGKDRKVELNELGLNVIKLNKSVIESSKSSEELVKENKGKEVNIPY
Experimental: The MST experiment and data analysis for ligand-induced changes in Csa3Sso binding affinity with PCas4a was performed as mentioned above except for the following: 1 μM of His6-Csa3Sso (WT) was fluorescently labeled in 2× binding buffer with 40 nM RED-Tris NTA His-Tag labeling dye in the absence or presence of cA4 or cA6. The labeling mixtures were incubated in the dark at room temperature for 30 min. A 50 μM stock of PCas4a was serially diluted in 1:1 ratios with nuclease-free water. The labeled proteins ± ligands were then mixed with diluted PCas4a in a 1:1 ratio and incubated in the dark at room temperature for 30 min. The supernatants obtained after removal of precipitated material were then loaded into Monolith NT.115 Series Premium capillaries in triplicate, and the thermophoresis was detected with 100% excitation power and 60% IR-laser power for an on-time of 20 s at 25 °C.
as §2

[2] = molecular target: Treponema succinifaciens Card1; parameters: method as in PMID 33461211; conditions: cited from earlier work
His6-Csa3Sso (WT) [3] = molecular target: T2, His6-Csa3Sso (WT); experiment: Microscale thermophoresis (MST) binding of cOA ligands to wildtype Csa3Sso
Experimental: The ligand-binding specificity of Csa3Sso (WT) and the role of Csa3Sso residues in ligand binding were determined by microscale Thermophoresis (MST). Wildtype or mutant His6-Csa3Sso (200 nM) was fluorescently labeled in 2× binding buffer (10 mM Na/K phosphate, pH 5.8, 10 mM MgCl2, 25 mM NaCl, and 0.05% Tween 20) using 100 nM RED-Tris NTA His-Tag labeling dye (Nanotemper Technologies, Inc) and incubated in the dark at room temperature for 30 min. Two millimolar stocks of synthetic ligands including cA3, cA4, and cA6 (Biolog Life Science Institute) or linear ribonucleotide 5′-rCrArArArA-3′ (Bio-Synthesis Inc) were serially diluted in a 1:1 ratio with nuclease-free water. The labeled proteins were then mixed with ligands in a 1:1 ratio. Only cA4 was used in the MST experiments with the Csa3Sso mutants (2 mM stocks of cA4 were used for F10A, F14A, G96A, and R98A mutants, and 20 μM stocks were used for E122A and E122Q mutants). The mixtures of proteins and ligands were incubated in the dark at room temperature for 30 min. The precipitated material was removed by centrifugation at 6000 rpm for 5 min. The supernatants were then loaded into Monolith NT.115 Series Premium capillaries in triplicate, and the thermophoresis was detected with 40% excitation power and 40% IR-laser power for an on-time of 20 s at 25 °C.
as §2

[4] = molecular target: T3, Csa3Sso–PCas4a complex precipitates (Saccharolobus solfataricus, UniProt Q97Y88); experiment: Visual precipitation of Csa3Sso–PCas4a complexes in tubes, wildtype; conditions: 50 μM Csa3Sso WT, 10 μM PCas4a, 500 μM cA4, 30 min, 20 °C
T3 construct: made in house; host or cells: E. coli BL21(DE3)-pLysS
T3 sequence (Q97Y88 1-237): T2 sequence (Q97Y88 1-237)
Text: (§3) […]. The DNA fragment docked onto protomer A in the cA4-bound Csa3Sso dimer sterically clashed with a region in the CARF domain from protomer B in this dimer (encircled by a red dotted circle). […] To obtain these models, wHTH domains of B. subtilis OhrR (PDB code: 1Z9C ([71]), RMSD: 1.7 Å) were individually superimposed onto wHTH domains of the Csa3Sso dimer and OhrR was omitted from the view for clarity. A single and straight model of B-form DNA with two copies of the palindromes could not be modeled with the apo Csa3Sso dimer owing to a slight misorientation (not shown) between Csa3Sso wHTH domains (possibly requiring a bend in the DNA). B, precipitation of Csa3Sso in the presence of PCas4a DNA and its solubilization by cA4 binding to the Csa3Sso CARF domain. […]. Cy5-labeled PCas4a, 50 nM, was added to different Csa3Sso concentrations ranging from 500 nM to 25 μM in the presence or absence of cA4 added in a 50:1 ratio of cA4:Csa3Sso. […].

Csa3Sso = molecular target: T4, Csa3Sso (Saccharolobus solfataricus, UniProt Q97Y88); experiment: Ring nuclease activity assay (C18 HPLC), wildtype Csa3Sso; type: biochemical; conditions: 3 h
T4 construct: made in house; host or cells: E. coli BL21(DE3)-pLysS
T4 sequence (Q97Y88 1-237): T2 sequence (Q97Y88 1-237)
Experimental: (§4) […]. The reaction mixtures were deproteinized by ultrafiltration with an Amicon Ultra 3 kDa cutoff centrifugal filter (Millipore). […]. For both conditions, the products and controls were collected and analyzed with High Performance Liquid Chromatography system (UltiMate 3000, Thermo Scientific) equipped with the C18 column (4.6 × 100 mm, […], Thermo Scientific) and C18 column, (15 cm × 4.6 mm, […], Supelco), for the first and second conditions, respectively.

Csa3Sso-E122A = molecular target: T5, Csa3Sso-E122A (Saccharolobus solfataricus, UniProt Q97Y88, E122A); experiment: Ring nuclease activity assay (C18 HPLC), Csa3Sso-E122A; type: biochemical; conditions: 5 μM E122A mutant, 500 μM cA4, 60 °C, 3 h, Fig. S5C
T5 construct: made in house; host or cells: E. coli BL21(DE3)-pLysS (pET21b)
T5 sequence (Q97Y88 whole entry E122A): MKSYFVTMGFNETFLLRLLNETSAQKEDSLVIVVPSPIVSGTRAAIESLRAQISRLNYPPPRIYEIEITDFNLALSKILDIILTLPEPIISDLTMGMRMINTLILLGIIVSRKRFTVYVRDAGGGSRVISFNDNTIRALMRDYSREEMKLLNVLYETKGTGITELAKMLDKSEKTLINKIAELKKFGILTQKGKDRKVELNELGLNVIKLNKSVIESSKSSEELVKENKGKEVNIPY
Experimental: as §4

Csa3Sso–PCas4a complex = Csa3Sso–PCas4a complex (Saccharolobus solfataricus, UniProt Q97Y88)
Experimental: Top and bottom DNA oligonucleotide strands used for EMSA were purchased from Sigma-Aldrich (Table S2). The oligonucleotide strands were annealed by mixing them in 1:1 molar ratio followed by heating at 98 °C for the unlabeled, or 70 °C for the Cy5-labeled, DNA fragments for 15 min. Slow cooling to room temperature was used to anneal the fragments. Unlabeled probe-containing samples used for Fig. S8C were electrophoresed using a 2% (w/v) agarose Tris-Borate-EDTA (TBE) gel at 100 V for 30 min at room temperature. Probes were stained with ethidium bromide and visualized using Gel Doc XR+ Molecular Imager (Bio-Rad). […] The Cy5-labeled probes were electrophoresed in a 5% acrylamide TBE gel at 100 V for 1 h at 4 °C. DNA bands were visualized using FluorChem R gel imager (Protein Simple, Inc).

Csa3Sso-E122Q = molecular target: T6, Csa3Sso-E122Q (Saccharolobus solfataricus, UniProt Q97Y88, E122Q); experiment: Ring nuclease activity assay (C18 HPLC), Csa3Sso-E122Q; type: biochemical; conditions: 5 μM E122Q mutant, 500 μM cA4, 60 °C, 3 h, Fig. S5C
T6 construct: made in house; host or cells: E. coli BL21(DE3)-pLysS (pET21b)
T6 sequence (Q97Y88 whole entry E122Q): as the sequence (Q97Y88 whole entry E122A) above, with A122Q counted along it
Experimental: as §4

Csa3Sso F14A mutant = molecular target: T7, Csa3Sso F14A mutant (Saccharolobus solfataricus, UniProt Q97Y88, F14A); experiment: MST binding of cA4 to Csa3Sso F14A mutant; conditions: Fig. 4E
T7 construct: made in house; host or cells: E. coli BL21(DE3)-pLysS (pET21b)
T7 sequence (Q97Y88 whole entry F14A): as the sequence (Q97Y88 whole entry E122A) above, with F14A, A122E counted along it
Experimental: as §1, §2

Csa3Sso G96A mutant = molecular target: T8, Csa3Sso G96A mutant (Saccharolobus solfataricus, UniProt Q97Y88, G96A); experiment: MST binding of cA4 to Csa3Sso G96A mutant; conditions: Fig. 4E
T8 construct: made in house; host or cells: E. coli BL21(DE3)-pLysS (pET21b)
T8 sequence (Q97Y88 whole entry G96A): as the sequence (Q97Y88 whole entry E122A) above, with G96A, A122E counted along it
Experimental: as §1, §2

[5] = molecular target: T9, Csa3Sso-R98A mutant with PCas4a DNA (Saccharolobus solfataricus, UniProt Q97Y88, R98A); experiment: Visual precipitation of Csa3Sso-R98A with PCas4a DNA in tubes; conditions: 50 μM Csa3Sso R98A, 10 μM PCas4a, 500 μM cA4, 30 min, 20 °C
T9 construct: made in house; host or cells: E. coli BL21(DE3)-pLysS (pBB75)
T9 sequence (Q97Y88 whole entry R98A): as the sequence (Q97Y88 whole entry E122A) above, with R98A, A122E counted along it
Text: as §3

Csa3Sso F10A mutant = molecular target: T10, Csa3Sso F10A mutant (Saccharolobus solfataricus, UniProt Q97Y88, F10A); experiment: MST binding of cA4 to Csa3Sso F10A mutant; conditions: Fig. 4E
T10 construct: made in house; host or cells: E. coli BL21(DE3)-pLysS (pET21b)
T10 sequence (Q97Y88 whole entry F10A): as the sequence (Q97Y88 whole entry E122A) above, with F10A, A122E counted along it
Experimental: as §1, §2

[6] = tested on: Csa3bSis binding to the Pcsa1 promoter; parameters: method as in PMID 32983033; conditions: in the presence of the cA4 analog in vitro; cited from earlier work
Csa3bSis = molecular target: Csa3bSis; parameters: method as in PMID 32983033; conditions: surface plasmon resonance; cited from earlier work

T1 sequence (Q97Y88 whole entry R98A): as the sequence (Q97Y88 whole entry E122A) above, with R98A, A122E counted along it

Compound	cA4 binding (Csa3Sso R98A mutant)	effect of excess cOA on PCas4a binding affinity of Csa3Sso (His6-Csa3Sso (WT) [1])	Kd [2]	fold stronger binding of His6-Csa3Sso to cA4 than Csa3bSis to the linear cA4 analog (His6-Csa3Sso (WT) [3]; MST KD vs SPR KD of ref 57)	effect on formation of Csa3Sso–PCas4a complex precipitates [4]	cA4 hydrolysis (ring nuclease activity) (Csa3Sso; 5 μM Csa3Sso, 500 μM cA4, buffer G, 60 °C, Fig. 6)	cA4 hydrolysis (ring nuclease activity) (Csa3Sso; 50 µM Csa3Sso, 250 µM cA4, buffer G or binding buffer, 55 °C, Fig. S5 A, B)	cA4 hydrolysis (ring nuclease activity) (Csa3Sso-E122A)	effect on levels of soluble Csa3Sso–DNA complex (shifted band) (Csa3Sso–PCas4a complex)	cA4 hydrolysis (ring nuclease activity) (Csa3Sso-E122Q)	cA4 binding (Csa3Sso F14A mutant)	cA4 binding (Csa3Sso G96A mutant)	rescue of Csa3Sso-R98A from precipitating with DNA [5]	cA4 binding (Csa3Sso F10A mutant)	fold increase in Csa3bSis binding affinity to the Pcsa1 promoter [6]	specific binding to His6-Csa3Sso (His6-Csa3Sso (WT) [3]; MST)	Kd (Csa3bSis)
Nc1ncnc2c1ncn2[C@@H]1O[C@@H]2COP(=O)(O)O[C@H]3[C@@H](O)[C@H](n4cnc5c(N)ncnc54)O[C@@H]3COP(=O)(O)O[C@H]3[C@@H](O)[C@H](n4cnc5c(N)ncnc54)O[C@@H]3COP(=O)(O)O[C@H]3[C@@H](O)[C@H](n4cnc5c(N)ncnc54)O[C@@H]3COP(=O)(O)O[C@H]2[C@H]1O [cA4, cyclic tetra-adenylate]	completely lost cA4 binding	no significant effect; also recorded: did not significantly change	0.015 µM	8 fold	prevented their formation	no sign of cA4 hydrolysis products; also recorded: No changes in the time-dependent stability of cA4	No changes	did not exhibit any gain of ring nuclease activity; also recorded: no ring nuclease activity was observed	no effect	did not exhibit any gain of ring nuclease activity; also recorded: no ring nuclease activity was observed	complete loss of cA4 binding	completely lost the ability to bind cA4	could not rescue	complete loss of cA4 binding	–	–	–
5′-rCrArArArA-3′ [5′CAAAA3′]	–	–	–	–	–	–	–	–	–	–	–	–	–	–	~10 fold	only cA4 exhibited a specific low micromolar binding	46.1 ± 8.14 µM

Reference: PMC8844856, “Structural basis of cyclic oligoadenylate binding to the transcription factor Csa3 outlines cross talk between type III and type I CRISPR systems” (The Journal of Biological Chemistry, 2022)
